Experimental data as given in ChEMBL document CHEMBL4706483, “Discovery of novel phosphatidylcholine-specific phospholipase C drug-like inhibitors as potential anticancer agents” (Eur J Med Chem, 2020).
Active and inactive are the calls of the source. No cut-off for these calls is given here.

The compounds below were run against Phospholipase C (Bacillus cereus) (UniProt P09598) (assay: Inhibition of recombinant Bacillus cereus N-terminal His6-tagged full length PC-PLC 3C Protease cleavage site expressed in Escherichia coli BL21(DE3) cells at 10 uM using phosphatidylcholine as substrate by amplex red assay relative to control).
Sequence of Phospholipase C (Bacillus cereus) (P09598 whole entry, looked up): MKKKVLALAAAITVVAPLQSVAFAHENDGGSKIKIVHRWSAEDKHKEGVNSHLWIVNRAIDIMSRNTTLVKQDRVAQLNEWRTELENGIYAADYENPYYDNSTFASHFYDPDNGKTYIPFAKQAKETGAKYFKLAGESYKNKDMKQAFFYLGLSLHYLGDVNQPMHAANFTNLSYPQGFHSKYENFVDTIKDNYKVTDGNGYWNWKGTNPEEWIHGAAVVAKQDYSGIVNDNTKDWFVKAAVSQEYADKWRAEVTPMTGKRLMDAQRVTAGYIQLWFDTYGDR

Row | SMILES | inhibition
1 | O=C(O)C1Cc2c([nH]c3ccccc23)C(c2ccc(O)c(O)c2)N1 (stereo not drawn) | 75%
2 | Cc1[nH]c2ccc(C(=O)O)cc2c1CC(=O)O | 60%
3 | O=C(O)C1Cc2c([nH]c3ccccc23)C(c2ccc(Cl)cc2Cl)N1 (stereo not drawn) | 44%
4 | O=C(O)c1cc(NCc2cccc(Br)c2)ccc1N1CCOCC1 | 80%
5 | COc1cc(C2NC(C(=O)O)Cc3c2[nH]c2ccccc32)cc(OC)c1O (stereo not drawn) | 60%
6 | COc1cccc(C(=O)Nc2ccc(O)cc2C(=O)O)c1 | 47%
7 | O=C(O)C1Cc2c([nH]c3ccccc23)C(c2ccc(C(F)(F)F)cc2)N1 (stereo not drawn) | 37%
8 | O=C(O)c1cccc(NS(=O)(=O)c2ccc(C3CCCCC3)cc2)c1 | 25%
9 | Cc1[nH]c2ccc(Cl)cc2c1CC(=O)O | 65%
10 | CN(C)c1ccc(C2NC(C(=O)O)Cc3c2[nH]c2ccccc32)cc1 (stereo not drawn) | 43%

Now from value to compound:

Row | inhibition | SMILES
11 | 67% | O=C(O)c1cc(NCc2ccccc2)ccc1N1CCOCC1
12 | 89% | O=C(O)c1cc(NCc2ccccc2Cl)ccc1N1CCOCC1
13 | inactive | CN1CCN(c2ccc(NCc3cccc(Br)c3)cc2C(=O)O)CC1
14 | 65% | O=C(O)c1cc(NCc2ccc(Cl)cc2Cl)ccc1N1CCOCC1
15 | inactive | O=C(O)c1ccccc1N1CCOCC1
16 | 89% | O=C(O)c1cc(NCc2cccc(Cl)c2)ccc1N1CCOCC1
17 | inactive | CSc1ccc(CNc2ccc(N3CCOCC3)c(C(=O)O)c2)cc1
18 | inactive | O=C(O)c1cc(NCc2ccccc2C(F)(F)F)ccc1N1CCOCC1
